According to patent US4588750A, “Therapeutic compositions for reducing sebum secretion” (Hoffmann-La Roche Inc., priority 1983, dated 1986):

Legend:
[1] = test system: sebaceous glands (flank organs); test: Inhibition of testosterone propionate-stimulated flank organ weight increase in castrated male hamsters (Table II); format: in vivo
Description: The effect of the (E) form of the compound of formula I on sebaceous glands in mammals was further determined using hamsters, according to the following procedure. […] Animals were treated for 14 days and the response was measured by weight changes in flank organs removed at autopsy. Separate groups of hamsters served as vehicle controls and testosterone alone groups. Activity was measured by inhibition of the increase in weight which occurs in response to stimulation with testosterone propionate.

[2] = Skin irritation, topical application to the ears; format: in vivo, Charles River CD-1 mice; settings: topically in 25 μl/day acetone, doses up to 100 μg/day, 7 consecutive days
Description: 1,2,3,4-tetrahydro-1,1,4,4-tetramethyl-6-[(E)-α-methylstyryl]naphthalene was applied topically to the ears of 21-day-old male Charles River CD-1 mice for 7 consecutive days in 25 μl/day acetone. During treatment mice are observed for development of erythema on the ears, and uniform skin punches are taken at autopsy on day 8. Wet and dry weights of the skin samples were determined and compared to weights from vehicle-treated control animals. Increases in fluid content of the skin punches served as a measure of edema when irritation and inflammation had occurred.

[3] = test system: papilloma; settings: cited from earlier work
[4] = General tolerability statement; format: in vivo; settings: pharmacologically suitable dosages
[5] = Teratogenicity tests, for fetal abnormalities; format: in vivo, Charles River CD rats; settings: 10, 50 or 150 mg/kg daily orally, gestation days 8 and 9
Description: In order to further determine the safety of the (E) form of the compound of formula I teratogenicity tests, for fetal abnormalities, were carried out in rats according to the following procedure. 1,2,3,4-tetrahydro-1,1,4,4-tetramethyl-6-[(E)-α-methylstyryl]naphthalene was provided to Charles River CD rats on gestation days 8 and 9 using a daily dose of 10 , 50 or 150 mg/kg of this substance dissolved or suspended in a polyethelene glycol formulation containing traces of antioxidants (ascorbyl palmitate and butylated hydroxyanisole). The compound was administered orally at a constant volume of 5 ml/kg. The rats were then sacrificed on gestation day 20 and examined.

[6] = test system: abdominal sebaceous gland pad organs; test: Inhibition of testosterone-stimulated abdominal sebaceous gland pad weight increase in castrated male gerbils (Table III); format: in vivo
Description: The effect of the (E) form of the compound of formula I on sebaceous glands in mammals was further determined using gerbils, according to the following procedure. Male gerbils were castrated at 8 weeks of age and one week after surgery were treated with 5 ug free testosterone and 1,2,3,4-tetrahydro-1,1,4,4-tetramethyl-6-[(E)-α-methylstyryl]naphthalene topically in acetone on the abdominal sebaceous gland pad organs. Animals were treated for 14 days and the response was measured by weight changes in these organs removed at autopsy. Separate groups of gerbils served as vehicle controls and testosterone alone groups. Activity was measured by inhibition of the increase in weight which occurs in response to stimulation with testosterone.

[7] = Hypervitaminosis A test; design: species or system mice; settings: mouse, in vivo
Description: A hypervitaminosis A test was carried out on mice weighing 25-27 g. which received i.p. injections of 1,2,3,4-tetrahydro-1,1,4,4-tetramethyl-6-[(E)-α-methylstyryl]naphthalene in arachis oil over a 14 day period. Hypervitaminosis A is defined as being that condition of the animals where the symptoms (weight loss, skin desquamtion, loss of hair, bone fractures of extremities) added up to at least 3, c.f. W. Bollag, Cancer, 1974, 10, 731.

[8] = test system: sebum secretion; test: Inhibition of testosterone propionate-stimulated sebum secretion in castrated male rats (Table I); format: in vivo; settings: for Mean ± S.E. "Sebum" / % Inhibition of testosterone-stimulated increase in "sebum": 14 days
Description: The effect of the (E) form of the compound of formula I on sebum secretion in mammals, such as rats, was determined according to the following procedure. Male rats weighing about 50-60 g. were castrated at the age of 21-22 days. One week after surgery, the rats were washed in a detergent solution to remove "sebum" which was secreted prior to the test period. One group of rats were treated only with the carrier vehicles employed. Another group of rats received only testosterone propionate in sesame oil, 100 ug/0.2 ml/rat/day […]. Other groups of rats were given testosterone propionate in sesame oil (100 ug/0.2 ml/rat/day subcutaneously) and 1,2,3,4-tetrahydro-1,1,4,4-tetramethyl-6-[(E)-α-methylstyryl]naphthalene, with different amounts of 1,2,3,4-tetrahydro-1,1,4,4-tetramethyl-6[(E)-α-methylstyryl]naphthalene being administered to each of the other groups orally in 0.2 ml/rat/day propylene glycol. The rats were treated with the compounds for 14 days. On the 15th day total body immersion in a fixed volume of acetone with mixing for two minutes removed surface "sebum" from skin and fur. An aliquot of the solvent bath was dried and the solid residue was measured gravimetrically. Inhibition of the testosterone-stimulated increase in "sebum" over solely testosterone propionate stimulated rats was used as the parameter of response.

In the case of `C/C(=C\c1ccccc1)c1ccc2c(c1)C(C)(C)CCC2(C)C` [1,2,3,4-tetrahydro-1,1,4,4-tetramethyl-6-[(E)-α-methylstyryl]naphthalene], the “% Inhibition of testosterone-stimulated increase in flank organ weight” value ([1]; 0.5 μg topically + T.P. 5 ug, 14 days, 9 hamsters) is reported as 38%, the “Mean ± S.E. Flank Organ” value ([1]; 0.5 μg topically + T.P. 5 ug, 14 days, 9 hamsters, p<.001 vs T.P. alone) is reported as 26.0 ± 1.6 mg and the “inhibition of flank organ weight increase” value ([1]; 0.5 ug/animal/day topically with 5 μg T.P., vs testosterone alone) is reported as roughly 38%. The “adverse effects (skin irritation: erythema, edema of ear skin punches)” value [2] was “not to have adverse effects”, the “effect on papilloma growth” value ([3]; Loeliger et al., Eur. J. Med. Chem., 15, 9 (1980)) was “no effect on papilloma growth” and the papilloma size ([3]; after intraperitoneal administration, Loeliger et al. (1980)) was “increase in papilloma size”. For the same compound, the tolerability [4] was “well tolerated without toxic symptoms”, the external malformations ([5]; 187 fetuses) was “no external malformations were recorded in any of the 187 fetuses” and the absorption rate ([5]; examined day 20) was “no adverse effects”. For the same compound, the fetal weight ([5]; examined day 20) was “no adverse effects”, the maternal body weights ([5]; examined day 20) was “no adverse effects” and the “% Inhibition of testosterone-stimulated increase in sebaceous gland pad weight” value ([6]; 1 ug topically + testosterone 5 ug, 14 days, 10 gerbils) was 54%. The “Mean ± S.E. Sebaceous Gland Pad” value ([6]; 1 ug topically + testosterone 5 ug, 14 days, 10 gerbils, p<.01 vs testosterone alone) was 45.6 ± 6.9 mg, the “inhibition of sebaceous gland pad weight” value ([6]; 1.0 ug/animal/day p.o. (so in the source) with 5 ug testosterone topically, vs testosterone alone) was roughly 54% and the “undesired side effects such as hypervitaminosis” value [7] was “no undesired side effects such as hypervitaminosis”. For the same compound, the NOAEL at 336 h ([7]; ip, i.p. in arachis oil, 14 day period, hypervitaminosis A = symptoms adding up to at least 3, read-out: dosage not resulting in hypervitaminosis A (tested up to)) was greater than 400 mg/kg, the “Mean ± S.E. "Sebum"” value ([8]; 0.5 ug/rat/day p.o. + T.P. 100 ug/rat/day s.c., 8 rats, NS vs T.P. alone) was 25.1 ± 1.9 ug/100 ul and the “Mean ± S.E. "Sebum"” value ([8]; 1 ug/rat/day p.o. + T.P. 100 ug/rat/day s.c., 8 rats, NS vs T.P. alone) was 26.8 ± 1.6 ug/100 ul. For the same compound, the “Mean ± S.E. "Sebum"” value ([8]; 2 ug/rat/day p.o. + T.P. 100 ug/rat/day s.c., 8 rats, NS vs T.P. alone) was 22.1 ± 1.2 ug/100 ul, the “Mean ± S.E. "Sebum"” value ([8]; 4 ug/rat/day p.o. + T.P. 100 ug/rat/day s.c., 8 rats, NS vs T.P. alone) was 21.6 ± 1.6 ug/100 ul and the “% Inhibition of testosterone-stimulated increase in "sebum"” value ([8]; 10 ug/rat/day p.o. + T.P. 100 ug/rat/day s.c.) was 61%. The “Mean ± S.E. "Sebum"” value ([8]; 10 ug/rat/day p.o. + T.P. 100 ug/rat/day s.c., 9 rats, p<.01 vs T.P. alone) was 23.4 ± 1.6 ug/100 ul, the “% Inhibition of testosterone-stimulated increase in "sebum"” value ([8]; 20 ug/rat/day p.o. + T.P. 100 ug/rat/day s.c.) was 70% and the “Mean ± S.E. "Sebum"” value ([8]; 20 ug/rat/day p.o. + T.P. 100 ug/rat/day s.c., 9 rats, p<.01 vs T.P. alone) was 22.4 ± 1.6 ug/100 ul. For the same compound, the “% Inhibition of testosterone-stimulated increase in "sebum"” value ([8]; 40 ug/rat/day p.o. + T.P. 100 ug/rat/day s.c.) was 73%, the “Mean ± S.E. "Sebum"” value ([8]; 40 ug/rat/day p.o. + T.P. 100 ug/rat/day s.c., 9 rats, p<.001 vs T.P. alone) was 22.1 ± 0.9 ug/100 ul and the “% Inhibition of testosterone-stimulated increase in "sebum"” value ([8]; 100 ug/rat/day p.o. + T.P. 100 ug/rat/day s.c.) was 93%. The “Mean ± S.E. "Sebum"” value ([8]; 100 ug/rat/day p.o. + T.P. 100 ug/rat/day s.c., 9 rats, p<.001 vs T.P. alone) was 19.9 ± 1.2 ug/100 ul and the “sebum secretion (in words)” value ([8]; 100 ug/rat/day p.o. + T.P. 100 ug/rat/day s.c., compared to T.P. alone) was “decreased to virtually normal level”.
In the case of `CCC(=O)O[C@H]1CC[C@H]2[C@@H]3CCC4=CC(=O)CC[C@]4(C)[C@H]3CC[C@]12C` [T.P., testosterone propionate, reference compound], the “Mean ± S.E. Flank Organ” value ([1]; T.P. alone, 5 ug, 14 days, 8 hamsters) is reported as 33.8 ± 2.0 mg, the “Mean ± S.E. "Sebum"” value ([8]; 100 ug/rat/day s.c. T.P. alone (0 ug compound), 8 rats, first experiment) is reported as 25.1 ± 1.4 ug/100 ul and the “Mean ± S.E. "Sebum"” value ([8]; 100 ug/rat/day s.c. T.P. alone (0 ug compound), 9 rats, second experiment) is reported as 30.1 ± 1.0 ug/100 ul.
In the case of `C[C@]12CC[C@H]3[C@@H](CCC4=CC(=O)CC[C@@]43C)[C@@H]1CC[C@@H]2O` [Testosterone, testosterone, reference compound], the “Mean ± S.E. Sebaceous Gland Pad” value ([6]; Testosterone alone, 5 ug, 14 days, 10 gerbils) is reported as 72.5 ± 5.8 mg.
